Measurements from patent US4609645A, “Macrolide antibiotics, pharmaceutical compositions and methods of use” (priority 1983, dated 1986).
Values after ≈ are worked out from the molar mass of the structure shown. Like-named read-outs stand apart in the source and are kept apart here.

What was measured:
[1] = system: S. aureus FDA 209P; assay: Minimum inhibitory concentration (MIC), antimicrobial activity; format: cell-based; conditions: Staphylococcus aureus, FDA209P
Experimental: (§1) The antimicrobial activity of the PTL-448 derivatives of the invention is illustrated in Table 3, which is a summary of the results of a number of tests carried out to determine minimum inhibitory concentrations (MIC) of the derivatives against a number of typical bacteria. Comparative results for Spiramycin I (SPM I) and III (SPM III) are also given. Tests were carried out using heart infusion agar media (pH 7 at 37° C., after about 20 hours).

[2] = system: B. cereus IFO 3001; assay: as above; format: cell-based; conditions: Bacillus cereus
Experimental: as §1

[3] = system: Staphylococcus aureus ATCC 6538P; assay: as above; format: cell-based; conditions: ATCC6538P
Experimental: as §1

[4] = system: Salmonella typhimurium KB 20; assay: as above; format: cell-based; conditions: Salmonella enterica
Experimental: as §1

[5] = system: Micrococcus luteus ATCC 9341; assay: as above; format: cell-based
Experimental: as §1

[6] = system: Streptococcus pneumoniae III KB 165; assay: as above; format: cell-based
Experimental: as §1

[7] = system: Klebsiella pneumoniae ATCC 10031; assay: as above; format: cell-based
Experimental: as §1

[8] = system: E. coli N-33; assay: as above; format: cell-based; conditions: Escherichia coli
Experimental: as §1

[9] = system: Bacillus subtilis PCI 219; assay: as above; format: cell-based
Experimental: as §1

[10] = Solubility; format: physicochemical
[11] = Toxicity tests in mice; format: in vivo; conditions: 100 mg/kg i.p., after 1 month of treatment
[12] = system: Mycoplasma gallisepticum KP-13; assay: Activity against Mycoplasma, paper disk inhibition zone; format: cell-based; conditions: paper disk 8 mm in diameter, 37° C., about 48 hours
Experimental: (§2) In addition, the activity of the PTL-448 derivatives against Mycoplasma was examined by conventional methods (paper disk 8 mm in diameter, 37° C., about 48 hours).

[13] = system: Acholeplasma laidlawii PG-8; assay: as above; format: cell-based; conditions: paper disk 8 mm in diameter, 37° C., about 48 hours
Experimental: as §2

[14] = system: S. pyogenes KB 166; assay: Minimum inhibitory concentration (MIC), antimicrobial activity; format: cell-based; conditions: Streptococcus pyogenes, KB166, heart infusion agar, pH 7, 37° C., about 20 hours
Experimental: as §1

[15] = S. aureus FDA 209P, heart infusion agar, pH 7, 37° C., about 20 hours, read-out: MIC
[16] = IFO3001, B. cereus IFO 3001, heart infusion agar, pH 7, 37° C., about 20 hours, read-out: MIC
[17] = Staphylococcus aureus ATCC 6538P, heart infusion agar, pH 7, 37° C., about 20 hours, read-out: MIC
[18] = Salmonella typhimurium KB 20, heart infusion agar, pH 7, 37° C., about 20 hours, read-out: MIC
[19] = ATCC9341, Micrococcus luteus ATCC 9341, heart infusion agar, pH 7, 37° C., about 20 hours, read-out: MIC
[20] = IIIKB165, Streptococcus pneumoniae III KB 165, heart infusion agar, pH 7, 37° C., about 20 hours, read-out: MIC
[21] = ATCC10031, Klebsiella pneumoniae ATCC 10031, heart infusion agar, pH 7, 37° C., about 20 hours, read-out: MIC
[22] = N33, E. coli N-33, heart infusion agar, pH 7, 37° C., about 20 hours, read-out: MIC
[23] = PCI219, Bacillus subtilis PCI 219, heart infusion agar, pH 7, 37° C., about 20 hours, read-out: MIC
[24] = methanol, ethanol, acetone, ethyl acetate, chloroform, benzene

SMILES | MIC [1, 15] | MIC [2, 16] | MIC [3, 17] | MIC [4, 18] | MIC [5, 19] | MIC [6, 20] | MIC [7, 21] | MIC [8, 22] | MIC [9, 23] | Solubility ([10]; ether, n-hexane) | Solubility [10, 24] | Solubility ([10]; water) | fatalities [11] | Diameter of Inhibition Zone [12] | Diameter of Inhibition Zone [13] | MIC [14] | further results
CCC1OC(=O)CC(OC(C)=O)C(C)C(OC2OC(C)C(OC3CC(C)(O)C(O)C(C)O3)C(N(C)C)C2O)C(CC=O)CC(C)C(OC2CCC(N(C)C)C(C)O2)C=CC(C)=CC1C (stereo not shown) [PTL-448-A] | 6.25 µg/mL (≈ 6.86 µM) | 3.12 µg/mL (≈ 3.42 µM) | 6.25 µg/mL (≈ 6.86 µM) | > 100 µg/mL | 0.4 µg/mL (≈ 0.439 µM) | 0.4 µg/mL (≈ 0.439 µM) | > 100 µg/mL | 1.56 µg/mL (≈ 1.71 µM) | 1.56 µg/mL (≈ 1.71 µM) | Slightly soluble | Soluble | Insoluble | no fatalities occurred | 29.2 mm | 32.6 mm |  | 
CCC(=O)OC1CC(=O)OC(C)CC=CC=CC(OC2CCC(N(C)C)C(C)O2)C(C)CC(CC=O)C(OC2OC(C)C(OC3CC(C)(O)C(O)C(C)O3)C(N(C)C)C2O)C1OC (stereo not shown) [SPM III, Spiramycin III, reference compound] | 12.5 µg/mL (≈ 13.9 µM) | 3.12 µg/mL (≈ 3.47 µM) | 12.5 µg/mL (≈ 13.9 µM) | > 100 µg/mL | 0.4 µg/mL (≈ 0.445 µM) | 0.4 µg/mL (≈ 0.445 µM) | > 100 µg/mL | 1.56 µg/mL (≈ 1.74 µM) | 1.56 µg/mL (≈ 1.74 µM) |  |  |  |  |  |  |  | 
CCC1OC(=O)CC(O)C(C)C(OC2OC(C)C(O)C(N(C)C)C2O)C(CC=O)CC(C)C(OC2CCC(N(C)C)C(C)O2)C=CC(C)=CC1C (stereo not shown) [PTL-448-D] | 1.56 µg/mL (≈ 2.15 µM) | 1.56 µg/mL (≈ 2.15 µM) | 1.56 µg/mL (≈ 2.15 µM) | 25 µg/mL (≈ 34.5 µM) | 0.2 µg/mL (≈ 0.276 µM) | 0.2 µg/mL (≈ 0.276 µM) | 25 µg/mL (≈ 34.5 µM) | 0.2 µg/mL (≈ 0.276 µM) | 1.56 µg/mL (≈ 2.15 µM) | Slightly soluble | Soluble | Insoluble | no fatalities occurred |  | 32.0 mm | 0.4 µg/mL (≈ 0.552 µM) | 
CCC1OC(=O)CC(O)C(C)C(OC2OC(C)C(OC3CC(C)(O)C(O)C(C)O3)C(N(C)C)C2O)C(CC=O)CC(C)C(OC2CCC(N(C)C)C(C)O2)C=CC(C)=CC1C (stereo not shown) [PTL-448-B] | 3.12 µg/mL (≈ 3.59 µM) | 1.56 µg/mL (≈ 1.79 µM) | 3.12 µg/mL (≈ 3.59 µM) | > 100 µg/mL | 0.4 µg/mL (≈ 0.46 µM) | 0.4 µg/mL (≈ 0.46 µM) | > 100 µg/mL | 0.78 µg/mL (≈ 0.897 µM) | 0.78 µg/mL (≈ 0.897 µM) | Slightly soluble | Soluble | Insoluble | no fatalities occurred | 30.1 mm | 31.4 mm | 0.4 µg/mL (≈ 0.46 µM) | 
COC1C(O)CC(=O)OC(C)CC=CC=CC(OC2CCC(N(C)C)C(C)O2)C(C)CC(CC=O)C1OC1OC(C)C(OC2CC(C)(O)C(O)C(C)O2)C(N(C)C)C1O (stereo not shown) [SPM I, Spiramycin I, reference compound] |  |  |  |  |  |  |  |  |  |  |  |  |  |  |  |  | MIC ([1]; 20 h, pH 7): 6.25 µg/mL (≈ 7.41 µM); MIC ([2]; IFO3001, 20 h, pH 7): 3.12 µg/mL (≈ 3.7 µM); MIC ([3]; Staphylococcus aureus, 20 h, pH 7): 6.25 µg/mL (≈ 7.41 µM); MIC ([4]; TYPHIMURIUM, 20 h, pH 7): > 100 µg/mL; MIC ([5]; Micrococcus luteus, ATCC9341, 20 h, pH 7): 0.4 µg/mL (≈ 0.474 µM); MIC ([6]; Streptococcus pneumoniae, IIIKB165, 20 h, pH 7): 0.4 µg/mL (≈ 0.474 µM); MIC ([7]; Klebsiella pneumoniae, ATCC10031, 20 h, pH 7): > 100 µg/mL; MIC ([8]; N33, 20 h, pH 7): 1.56 µg/mL (≈ 1.85 µM); MIC ([9]; Bacillus subtilis, PCI219, 20 h, pH 7): 1.56 µg/mL (≈ 1.85 µM)
CCC1OC(=O)CC(OC(C)=O)C(C)C(OC2OC(C)C(O)C(N(C)C)C2O)C(CC=O)CC(C)C(OC2CCC(N(C)C)C(C)O2)C=CC(C)=CC1C (stereo not shown) [PTL-448-C] | 1.56 µg/mL (≈ 2.03 µM) | 1.56 µg/mL (≈ 2.03 µM) | 1.56 µg/mL (≈ 2.03 µM) | 50 µg/mL (≈ 65.2 µM) | 0.4 µg/mL (≈ 0.522 µM) | 0.2 µg/mL (≈ 0.261 µM) | 50 µg/mL (≈ 65.2 µM) | 0.4 µg/mL (≈ 0.522 µM) | 1.56 µg/mL (≈ 2.03 µM) | Slightly soluble | Soluble | Insoluble | no fatalities occurred |  | 33.1 mm | 0.4 µg/mL (≈ 0.522 µM) | 
